Data taken from ChEMBL document CHEMBL5291721, “A preclinical secondary pharmacology resource illuminates target-adverse drug reaction associations of marketed drugs” (Nat Commun, 2023).
Several values for one entry are separate records, joined by “and”; a condition that tells them apart may be missing. Identical values can stand only once.

Columns and labels:
B2 bradykinin receptor = molecular target: T1, B2 bradykinin receptor (Homo sapiens, UniProt P30411)
T1 sequence (P30411 whole entry): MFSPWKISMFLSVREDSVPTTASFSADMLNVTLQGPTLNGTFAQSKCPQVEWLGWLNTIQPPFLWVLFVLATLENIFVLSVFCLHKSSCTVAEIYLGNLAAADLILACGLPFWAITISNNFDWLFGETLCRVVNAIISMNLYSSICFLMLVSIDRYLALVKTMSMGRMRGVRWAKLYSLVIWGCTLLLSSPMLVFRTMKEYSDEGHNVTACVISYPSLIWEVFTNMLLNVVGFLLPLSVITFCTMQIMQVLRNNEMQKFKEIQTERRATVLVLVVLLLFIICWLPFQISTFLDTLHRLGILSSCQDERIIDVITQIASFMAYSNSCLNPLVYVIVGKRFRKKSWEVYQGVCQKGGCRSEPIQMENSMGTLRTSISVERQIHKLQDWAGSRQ

[1] = molecular target: T2, 5-hydroxytryptamine receptor 1A (Homo sapiens, UniProt P08908); assay type: functional, cell-based
T2 sequence (P08908 whole entry): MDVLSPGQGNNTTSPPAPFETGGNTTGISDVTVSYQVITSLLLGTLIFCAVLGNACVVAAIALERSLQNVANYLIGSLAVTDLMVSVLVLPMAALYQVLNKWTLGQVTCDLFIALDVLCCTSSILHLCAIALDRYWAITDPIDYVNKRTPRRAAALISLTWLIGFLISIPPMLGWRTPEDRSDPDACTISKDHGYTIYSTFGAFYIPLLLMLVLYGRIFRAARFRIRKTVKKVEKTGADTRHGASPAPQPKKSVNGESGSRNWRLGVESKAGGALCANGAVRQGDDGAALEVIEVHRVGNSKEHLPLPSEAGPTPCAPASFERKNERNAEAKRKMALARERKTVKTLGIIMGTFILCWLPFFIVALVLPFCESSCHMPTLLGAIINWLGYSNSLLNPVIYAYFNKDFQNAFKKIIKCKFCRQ

[2] = molecular target: T3, Amine oxidase [flavin-containing] A (Homo sapiens, UniProt P21397); assay type: functional
T3 sequence (P21397 whole entry): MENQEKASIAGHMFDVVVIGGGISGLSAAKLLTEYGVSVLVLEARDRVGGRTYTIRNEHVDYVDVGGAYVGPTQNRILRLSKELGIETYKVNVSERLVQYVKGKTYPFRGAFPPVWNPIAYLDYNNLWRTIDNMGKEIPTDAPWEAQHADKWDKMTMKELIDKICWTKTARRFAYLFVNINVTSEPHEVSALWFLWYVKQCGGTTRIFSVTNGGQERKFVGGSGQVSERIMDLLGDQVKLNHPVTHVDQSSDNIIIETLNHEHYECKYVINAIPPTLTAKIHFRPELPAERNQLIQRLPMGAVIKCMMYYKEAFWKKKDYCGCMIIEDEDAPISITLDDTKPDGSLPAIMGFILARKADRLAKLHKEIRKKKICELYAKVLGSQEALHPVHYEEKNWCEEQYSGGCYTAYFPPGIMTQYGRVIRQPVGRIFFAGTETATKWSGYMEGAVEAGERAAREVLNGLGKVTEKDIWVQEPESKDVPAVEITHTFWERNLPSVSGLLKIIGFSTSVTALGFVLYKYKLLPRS

Vasopressin V2 receptor = Vasopressin V2 receptor (Homo sapiens, UniProt P30518)
Vasopressin V2 receptor, sequence (P30518 whole entry): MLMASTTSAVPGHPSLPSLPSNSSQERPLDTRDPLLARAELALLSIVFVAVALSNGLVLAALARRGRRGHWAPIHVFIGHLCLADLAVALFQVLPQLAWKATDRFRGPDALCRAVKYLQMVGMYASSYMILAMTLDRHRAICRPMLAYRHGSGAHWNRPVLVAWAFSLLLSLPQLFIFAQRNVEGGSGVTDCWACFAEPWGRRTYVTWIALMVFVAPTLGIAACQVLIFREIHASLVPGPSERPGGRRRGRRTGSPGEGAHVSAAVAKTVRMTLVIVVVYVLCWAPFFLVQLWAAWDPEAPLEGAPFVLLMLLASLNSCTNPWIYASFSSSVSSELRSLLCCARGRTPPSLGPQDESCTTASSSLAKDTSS

[3] = molecular target: cGMP-inhibited 3',5'-cyclic phosphodiesterase 3A (Homo sapiens, UniProt Q14432); assay type: functional
cGMP-inhibited 3',5'-cyclic phosphodiesterase 3A, sequence (Q14432 whole entry): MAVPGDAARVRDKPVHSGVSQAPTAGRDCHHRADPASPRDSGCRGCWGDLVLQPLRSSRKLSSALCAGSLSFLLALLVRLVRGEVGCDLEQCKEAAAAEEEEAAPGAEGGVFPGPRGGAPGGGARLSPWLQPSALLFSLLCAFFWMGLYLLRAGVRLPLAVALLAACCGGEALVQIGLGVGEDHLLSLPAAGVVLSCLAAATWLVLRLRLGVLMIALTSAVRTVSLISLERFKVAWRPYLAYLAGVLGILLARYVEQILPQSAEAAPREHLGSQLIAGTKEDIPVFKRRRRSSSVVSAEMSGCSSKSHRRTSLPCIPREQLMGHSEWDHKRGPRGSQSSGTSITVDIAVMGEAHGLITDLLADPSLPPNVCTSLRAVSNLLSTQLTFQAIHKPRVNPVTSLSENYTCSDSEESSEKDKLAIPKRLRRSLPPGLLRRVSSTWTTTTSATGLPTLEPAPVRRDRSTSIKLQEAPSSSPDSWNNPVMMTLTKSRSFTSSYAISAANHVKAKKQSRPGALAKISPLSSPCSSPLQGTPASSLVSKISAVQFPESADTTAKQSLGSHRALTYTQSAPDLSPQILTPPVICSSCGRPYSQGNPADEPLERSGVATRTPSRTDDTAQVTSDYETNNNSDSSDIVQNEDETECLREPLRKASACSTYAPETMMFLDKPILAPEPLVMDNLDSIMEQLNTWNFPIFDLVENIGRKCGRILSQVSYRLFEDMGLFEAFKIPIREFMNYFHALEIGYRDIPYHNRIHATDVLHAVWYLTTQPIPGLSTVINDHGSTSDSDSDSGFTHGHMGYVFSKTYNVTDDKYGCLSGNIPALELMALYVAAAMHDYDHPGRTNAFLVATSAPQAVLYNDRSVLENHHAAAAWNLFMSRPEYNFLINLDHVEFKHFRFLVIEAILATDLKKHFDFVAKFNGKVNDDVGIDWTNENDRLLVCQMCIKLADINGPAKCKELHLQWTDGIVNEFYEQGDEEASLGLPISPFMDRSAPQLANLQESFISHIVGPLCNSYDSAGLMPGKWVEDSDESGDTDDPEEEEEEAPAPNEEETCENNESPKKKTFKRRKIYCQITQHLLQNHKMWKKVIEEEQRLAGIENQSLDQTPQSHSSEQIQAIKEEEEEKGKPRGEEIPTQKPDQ

Histamine H2 receptor = Histamine H2 receptor (Homo sapiens, UniProt P25021); assay type: functional, cell-based
Histamine H2 receptor, sequence (P25021 whole entry): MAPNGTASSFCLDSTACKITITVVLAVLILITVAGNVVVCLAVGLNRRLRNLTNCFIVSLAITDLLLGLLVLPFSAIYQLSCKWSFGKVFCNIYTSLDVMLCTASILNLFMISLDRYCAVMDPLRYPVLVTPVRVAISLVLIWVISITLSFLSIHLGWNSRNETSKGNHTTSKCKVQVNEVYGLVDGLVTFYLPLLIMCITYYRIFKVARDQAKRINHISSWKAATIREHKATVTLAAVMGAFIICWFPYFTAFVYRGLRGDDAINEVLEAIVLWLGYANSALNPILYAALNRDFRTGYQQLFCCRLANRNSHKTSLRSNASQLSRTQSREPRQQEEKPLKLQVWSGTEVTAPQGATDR

[4] = molecular target: 3',5'-cyclic-AMP phosphodiesterase 4D (Homo sapiens, UniProt Q08499); assay type: functional
[5] = molecular target: Voltage-gated inwardly rectifying potassium channel KCNH2 (Homo sapiens, UniProt Q12809); assay type: functional
Voltage-gated inwardly rectifying potassium channel KCNH2, sequence (Q12809 whole entry): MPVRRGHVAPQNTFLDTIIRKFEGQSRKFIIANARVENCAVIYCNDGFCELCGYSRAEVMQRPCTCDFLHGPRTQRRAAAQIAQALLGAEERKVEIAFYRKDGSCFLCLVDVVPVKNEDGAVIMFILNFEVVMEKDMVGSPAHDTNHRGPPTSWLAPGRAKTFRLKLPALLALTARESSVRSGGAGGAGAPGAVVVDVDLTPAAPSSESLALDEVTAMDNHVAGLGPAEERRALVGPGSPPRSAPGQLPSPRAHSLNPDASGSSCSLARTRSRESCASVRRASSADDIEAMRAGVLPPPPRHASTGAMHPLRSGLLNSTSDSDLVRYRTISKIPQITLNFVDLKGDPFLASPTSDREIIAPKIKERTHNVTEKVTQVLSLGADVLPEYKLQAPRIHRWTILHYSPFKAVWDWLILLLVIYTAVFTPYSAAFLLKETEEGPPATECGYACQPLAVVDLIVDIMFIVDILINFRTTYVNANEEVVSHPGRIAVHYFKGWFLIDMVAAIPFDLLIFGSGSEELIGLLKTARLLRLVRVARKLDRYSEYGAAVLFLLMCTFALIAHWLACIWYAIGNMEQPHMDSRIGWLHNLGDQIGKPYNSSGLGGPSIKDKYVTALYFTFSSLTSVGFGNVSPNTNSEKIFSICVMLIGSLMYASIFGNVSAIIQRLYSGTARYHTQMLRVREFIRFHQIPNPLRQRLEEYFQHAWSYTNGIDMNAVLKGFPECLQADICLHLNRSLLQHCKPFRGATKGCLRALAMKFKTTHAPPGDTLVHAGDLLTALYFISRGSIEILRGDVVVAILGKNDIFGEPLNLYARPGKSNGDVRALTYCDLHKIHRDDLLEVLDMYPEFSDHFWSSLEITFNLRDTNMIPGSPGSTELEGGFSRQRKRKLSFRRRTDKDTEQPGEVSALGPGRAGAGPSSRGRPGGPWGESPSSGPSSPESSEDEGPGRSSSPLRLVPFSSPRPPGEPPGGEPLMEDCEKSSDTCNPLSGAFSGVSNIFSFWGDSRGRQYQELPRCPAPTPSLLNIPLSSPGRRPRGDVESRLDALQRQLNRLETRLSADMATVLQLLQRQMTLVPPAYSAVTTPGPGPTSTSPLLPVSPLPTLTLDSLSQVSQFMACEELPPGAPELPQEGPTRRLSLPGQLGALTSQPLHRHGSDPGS

[6] = molecular target: T4, Alpha-2C adrenergic receptor (Homo sapiens, UniProt P18825); assay type: functional
T4 sequence (P18825 whole entry): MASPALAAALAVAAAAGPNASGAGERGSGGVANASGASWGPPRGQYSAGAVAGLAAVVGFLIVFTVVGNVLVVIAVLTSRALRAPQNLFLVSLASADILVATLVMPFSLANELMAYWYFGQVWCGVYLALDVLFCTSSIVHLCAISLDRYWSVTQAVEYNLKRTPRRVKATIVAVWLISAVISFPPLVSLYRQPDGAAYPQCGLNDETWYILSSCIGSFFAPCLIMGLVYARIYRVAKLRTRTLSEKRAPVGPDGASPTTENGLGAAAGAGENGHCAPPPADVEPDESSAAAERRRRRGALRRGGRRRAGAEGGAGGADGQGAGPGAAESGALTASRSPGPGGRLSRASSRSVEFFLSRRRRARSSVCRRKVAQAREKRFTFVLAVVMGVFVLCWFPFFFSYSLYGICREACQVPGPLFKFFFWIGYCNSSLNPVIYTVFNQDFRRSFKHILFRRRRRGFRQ

[7] = molecular target: Growth hormone secretagogue receptor type 1 (Homo sapiens, UniProt Q92847)
Growth hormone secretagogue receptor type 1, sequence (Q92847 whole entry): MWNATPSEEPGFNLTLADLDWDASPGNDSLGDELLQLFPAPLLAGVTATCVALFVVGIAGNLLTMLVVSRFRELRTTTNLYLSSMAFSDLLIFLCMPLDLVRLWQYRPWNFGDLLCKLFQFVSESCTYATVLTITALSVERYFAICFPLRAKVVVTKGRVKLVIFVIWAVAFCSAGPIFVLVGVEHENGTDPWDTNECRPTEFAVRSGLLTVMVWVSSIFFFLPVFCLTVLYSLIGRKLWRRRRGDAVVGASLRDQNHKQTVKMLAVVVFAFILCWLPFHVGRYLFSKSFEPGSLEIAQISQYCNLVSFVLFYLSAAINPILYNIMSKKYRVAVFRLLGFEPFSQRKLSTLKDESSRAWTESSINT

D(3) dopamine receptor = D(3) dopamine receptor (Homo sapiens, UniProt P35462)
D(3) dopamine receptor, sequence (P35462 whole entry): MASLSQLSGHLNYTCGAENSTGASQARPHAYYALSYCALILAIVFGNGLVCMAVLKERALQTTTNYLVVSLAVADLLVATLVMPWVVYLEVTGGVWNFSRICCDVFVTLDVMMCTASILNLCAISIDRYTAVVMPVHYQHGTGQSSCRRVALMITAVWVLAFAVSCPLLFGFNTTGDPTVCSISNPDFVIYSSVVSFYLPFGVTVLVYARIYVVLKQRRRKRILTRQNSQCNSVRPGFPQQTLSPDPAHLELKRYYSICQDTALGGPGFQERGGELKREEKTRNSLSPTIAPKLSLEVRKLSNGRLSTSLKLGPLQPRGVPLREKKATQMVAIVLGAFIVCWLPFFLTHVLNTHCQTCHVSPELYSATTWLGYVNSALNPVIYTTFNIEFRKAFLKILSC

[8] = molecular target: Neuronal acetylcholine receptor subunit alpha-4 (Homo sapiens, UniProt P43681)
Neuronal acetylcholine receptor subunit alpha-4, sequence (P43681 whole entry): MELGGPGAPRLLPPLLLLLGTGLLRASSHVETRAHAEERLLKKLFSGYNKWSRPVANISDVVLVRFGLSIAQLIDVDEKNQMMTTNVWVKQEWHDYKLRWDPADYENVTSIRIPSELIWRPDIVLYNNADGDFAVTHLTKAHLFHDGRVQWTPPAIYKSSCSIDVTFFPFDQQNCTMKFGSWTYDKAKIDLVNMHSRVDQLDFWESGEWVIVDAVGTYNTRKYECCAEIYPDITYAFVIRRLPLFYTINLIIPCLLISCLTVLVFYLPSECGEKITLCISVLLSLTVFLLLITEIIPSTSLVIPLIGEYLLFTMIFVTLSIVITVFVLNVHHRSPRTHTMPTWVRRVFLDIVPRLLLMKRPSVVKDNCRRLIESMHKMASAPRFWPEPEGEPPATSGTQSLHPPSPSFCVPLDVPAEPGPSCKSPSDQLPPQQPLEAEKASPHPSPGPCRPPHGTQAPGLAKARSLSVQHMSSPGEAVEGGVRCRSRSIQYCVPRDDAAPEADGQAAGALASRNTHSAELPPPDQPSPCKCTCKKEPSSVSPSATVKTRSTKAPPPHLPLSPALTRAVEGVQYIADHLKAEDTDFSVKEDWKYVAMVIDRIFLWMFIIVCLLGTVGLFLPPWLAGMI

Adenosine receptor A2a = Adenosine receptor A2a (Homo sapiens, UniProt P29274)
Adenosine receptor A2a, sequence (P29274 whole entry): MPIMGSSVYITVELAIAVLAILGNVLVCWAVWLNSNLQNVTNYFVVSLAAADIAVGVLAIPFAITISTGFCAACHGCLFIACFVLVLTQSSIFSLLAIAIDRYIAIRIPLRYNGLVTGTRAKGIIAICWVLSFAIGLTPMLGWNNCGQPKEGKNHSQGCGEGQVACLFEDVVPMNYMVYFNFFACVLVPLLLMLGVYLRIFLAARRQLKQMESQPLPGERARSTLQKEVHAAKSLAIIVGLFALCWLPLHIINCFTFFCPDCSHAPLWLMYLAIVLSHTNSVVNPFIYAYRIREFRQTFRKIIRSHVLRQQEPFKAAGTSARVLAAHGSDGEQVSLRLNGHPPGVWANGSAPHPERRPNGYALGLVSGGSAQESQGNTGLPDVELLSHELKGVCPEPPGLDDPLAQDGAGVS

[9] = molecular target: T5, Cholecystokinin receptor type A (Homo sapiens, UniProt P32238)
T5 sequence (P32238 whole entry): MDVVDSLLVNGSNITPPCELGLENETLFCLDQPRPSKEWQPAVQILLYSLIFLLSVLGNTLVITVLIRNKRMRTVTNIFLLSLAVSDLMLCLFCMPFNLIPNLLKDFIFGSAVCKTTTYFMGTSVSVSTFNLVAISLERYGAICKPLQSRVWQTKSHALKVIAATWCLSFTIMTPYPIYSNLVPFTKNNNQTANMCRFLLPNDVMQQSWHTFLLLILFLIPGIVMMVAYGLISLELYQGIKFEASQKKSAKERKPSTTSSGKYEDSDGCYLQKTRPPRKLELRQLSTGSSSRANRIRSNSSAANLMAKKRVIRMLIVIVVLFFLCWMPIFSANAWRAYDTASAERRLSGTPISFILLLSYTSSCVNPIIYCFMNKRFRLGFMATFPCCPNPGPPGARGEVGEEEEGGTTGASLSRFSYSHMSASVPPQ

Measured: AC50
Also: assay procedure not described here.

CC1OC2(CS1)CN1CCC2CC1 (configuration not stated) [CEVIMELINE]
> 30 µM: [2] | [3] | Histamine H2 receptor | [4] | [5] | [6] | D(3) dopamine receptor
> 10 µM: all other assays above

C#C[C@]1(OC(C)=O)CC[C@H]2[C@@H]3CCC4=C/C(=N/O)CC[C@@H]4[C@H]3CC[C@@]21CC [NORGESTIMATE]
13 µM: [4]
29 µM: D(3) dopamine receptor
> 30 µM: all other assays above

Cc1noc(NS(=O)(=O)c2ccc(N)cc2)c1C [SULFISOXAZOLE]
> 30 µM: [3] | [4] | [5] | D(3) dopamine receptor
> 10 µM: all other assays above

CC(N)C(O)c1ccccc1 (configuration not stated) [PHENYLPROPANOLAMINE]
> 10 µM: [1] | [2] | Histamine H2 receptor | D(3) dopamine receptor | [8]
7.3 µM: [6]
> 30 µM: all other assays above

C[C@H](Cc1ccc(O)c(O)c1)[C@@H](C)Cc1ccc(O)c(O)c1 [MASOPROCOL]
1.8 µM: D(3) dopamine receptor
> 30 µM: [2] | [5] | [6] | [8] | Adenosine receptor A2a
12 µM and 23 µM and 19 µM: [3]
4.2 µM and 2.8 µM and 3.1 µM: [4]
> 10 µM: all other assays above

CCOC(=O)C1=C(C)NC(C)=C(C(=O)OC)C1c1cccc([N+](=O)[O-])c1 (configuration not stated) [NITRENDIPINE]
> 10 µM: [1] | [2] | Histamine H2 receptor | [6] | [8]
> 30 µM: all other assays above

COCC1=C(C(=O)O)N2C(=O)[C@@H](NC(=O)/C(=N\OC)c3csc(N)n3)[C@H]2SC1 [CEFPODOXIME]
> 30 µM: all assays above

OC1(c2ccc(Cl)cc2)c2ccccc2C2=NCCN21 (configuration not stated) [MAZINDOL]
> 10 µM: Histamine H2 receptor
> 30 µM: all other assays above

Clc1ccc2c(N3CCN(CCCN4CCN(c5ccnc6cc(Cl)ccc56)CC4)CC3)ccnc2c1 [PIPERAQUINE]
9 µM: D(3) dopamine receptor
2.56 µM: [5]
22 µM: [4]
4.7 µM: [3]
> 30 µM: all other assays above

CC(=O)N[C@@H](CS)C(=O)O [ACETYLCYSTEINE]
> 30 µM: all assays above

C[C@]12CCC(=O)C(O)=C1CC[C@@H]1[C@@H]2CC[C@]2(C)C(=O)CC[C@@H]12 [FORMESTANE]
> 30 µM: all assays above

CCC1(c2ccccc2)CCC(=O)NC1=O (configuration not stated) [GLUTETHIMIDE]
> 30 µM: [1] | [3] | [4] | [5] | D(3) dopamine receptor
> 10 µM: all other assays above

CCCCC(=O)O[C@]1(C(=O)CO)[C@@H](C)C[C@H]2[C@@H]3CCC4=CC(=O)C=C[C@]4(C)[C@@]3(F)[C@@H](O)C[C@@]21C [BETAMETHASONE VALERATE]
> 10 µM: [2] | Histamine H2 receptor | [6] | [8]
> 30 µM: all other assays above
